Assay [1] relates to human A431 vulval carcinoma tumour xenografts. The assay is described as follows: Human A431 vulval carcinoma tumour xenografts in nude mice. The conditions noted are these: A431 xenograft; for Number of tumours regressing after 31 days of treatment (treatment from day 28 to day 59): tumour volume at day 59 smaller than pre-treatment value on day 28, regressing/total. (In general: A xenograft is tissue or cells of one species grown in another, often human tumour cells in immunodeficient mice.)
Description: 5×10^6 A431 tumour cells in 0.1 ml of serum free Dulbecco's Modified Eagle's Medium (DMEM) were injected subcutaneously (s.c.) into the flank of each athymic (nu/nu genotype) mouse. Eleven days after inoculation tumours were excised and dissected to generate cubic tumour fragments of 0.5-1 mm^3, which were implanted into further nude mice for a therapy experiment. Tumour volumes were assessed by bilateral Vernier caliper measurement and, taking length to be the longest diameter across the tumour and width the corresponding perpendicular, calculated using the formula (length×width)×the square root of (length×width)×(π/6). […] In addition, the number of tumour regressions following 31 days of treatment was ascertained (tumour regression being evident if the tumour volume at day 59 was smaller than the pre-treatment value on day 28).

In assay [2] the test system is human LoVo colon tumour xenografts. The assay is described as follows: Human LoVo colon tumour xenografts in nude mice. The conditions noted are these: LoVo xenograft, p.o. daily days 0-14, ZD6474 6 mg/kg/day, ZD1839 50 mg/kg/day, or combination, versus control.
Description: 10^7 LoVo tumour cells in 0.1 ml of serum free Dulbecco's Modified Eagle's Medium (DMEM) were injected subcutaneously (s.c.) into the flank of each athymic (nu/nu genotype) mouse. Tumor volumes were assessed by bilateral Vernier caliper measurement and, taking length to be the longest diameter across the tumor and width the corresponding perpendicular, calculated using the formula (length×width)×the square root of (length×width)×(π/6). […] A one-tailed two-sample t-test was used to evaluate the significance of tumour growth inhibition.

On to `COc1cc2ncnc(Nc3ccc(F)c(Cl)c3)c2cc1OCCCN1CCOCC1` [ZD1839, N-(3-chloro-4-fluorophenyl)-7-methoxy-6-(3-morpholinopropoxy)quinazolin-4-amine, reference compound], for which the “Number of tumours regressing after 31 days of treatment (treatment from day 28 to day 59)” value in assay [1] is recorded as 3/9.

For the molecule `COc1cc2c(Nc3ccc(Br)cc3F)ncnc2cc1OCC1CCN(C)CC1` [ZD6474, 4-(4-bromo-2-fluoroanilino)-6-methoxy-7-(1-methylpiperidin-4-ylmethoxy)quinazoline], the “Mean % Inhibition of tumour growth following 21 days of treatment (treatment from day 28 to day 49)” value in assay [1] (nude mice, p.o., ZD6474 50 mg/kg/day, ZD1839 50 mg/kg/day, or combination, assessed day 49 versus control) is on record as 116% (P < 0.001). Besides, in assay [1] (restatement of inhibition above 100% as regression, day 49), the “% tumour regression following 21 days of treatment (day 28 to day 49)” value is “(i.e. 16% tumour regression)”. For the same molecule, the “Number of tumours regressing after 31 days of treatment (treatment from day 28 to day 59)” value in assay [1] is 6/9. Further, in assay [2], the “% Inhibition of Tumour Growth at Day 14” value came out at 38%.
